Reference: the NIST ThermoML archive (doi:10.1021/acs.jced.5b00260)

Assay: mn = molality of the nth substance listed, in mol/kg
Details: 100 kPa, Liquid, Vibrating tube method

C[C@H](N)C(=O)O [(S)-2-aminopropanoic acid] + O
mass density [kg/m3]
Details | m1 = 0.1 | m1 = 0.2 | m1 = 0.3 | m1 = 0.4
298.2 K | 999.9 | 1002.7 | 1005.5 | 1008.2
303.2 K | 998.4 | 1001.9 | 1004.1 | 1006.8
308.2 K | 996.8 | 1000.1 | 1002.3 | 1004.1
